Measured values from article PMC12038163 (Research, 2025).

Assay: in vivo
Conditions: male, Sprague-Dawley, rat, ip, 10 mg/kg

AUC(0-inf): 9100 ng·h/mL
AUC(0-t): 9070 ng·h/mL
CL/F: 30 mL/min/kg
Cmax: 5110 ng/mL
half-life: 1.4 ± 0.3 h
SMILES: Cc1cccc(-c2ccc(-c3cc4cnc(NC5CC5)nc4n(CCCCCC(=O)NO)c3=O)c(Cl)c2)n1 [ZMF-25]
